Literature values in paper PMC9516332 (Frontiers in Oncology, 2022).
Like-named read-outs stand apart in the source and are kept apart here.

Experiments:
[1] = target: panel of 255 wild-type kinases (Homo sapiens, UniProt O60674); conditions: kinase JAK2, 1 µmol/L single concentration, cited from earlier work
[2] = target: panel of 255 wild-type kinases (Homo sapiens, UniProt P07332); conditions: kinase FES, 1 µmol/L single concentration, cited from earlier work
[3] = target: panel of 255 wild-type kinases (Homo sapiens, UniProt P08922); conditions: kinase ROS, 1 µmol/L single concentration, cited from earlier work
[4] = target: panel of 255 wild-type kinases (Homo sapiens, UniProt P16591); conditions: kinase FER, 1 µmol/L single concentration, cited from earlier work
[5] = target: panel of 255 wild-type kinases (Homo sapiens, UniProt P24941); conditions: 1 µmol/L single concentration, cited from earlier work; for %-inhibition CDK2/CycA2: CDK2/CycA2 kinase assay; for %-inhibition CDK2/CycE1: CDK2/CycE1 kinase assay
[6] = target: panel of 255 wild-type kinases (Homo sapiens, UniProt P49759); conditions: kinase CLK1, 1 µmol/L single concentration, cited from earlier work
[7] = target: panel of 255 wild-type kinases (Homo sapiens, UniProt P49761); conditions: kinase CLK3, 1 µmol/L single concentration, cited from earlier work
[8] = target: T1, panel of 255 wild-type kinases (Homo sapiens, UniProt P51813); conditions: BMX kinase assay, 1 µmol/L single concentration, cited from earlier work
T1 sequence (P51813 1-675): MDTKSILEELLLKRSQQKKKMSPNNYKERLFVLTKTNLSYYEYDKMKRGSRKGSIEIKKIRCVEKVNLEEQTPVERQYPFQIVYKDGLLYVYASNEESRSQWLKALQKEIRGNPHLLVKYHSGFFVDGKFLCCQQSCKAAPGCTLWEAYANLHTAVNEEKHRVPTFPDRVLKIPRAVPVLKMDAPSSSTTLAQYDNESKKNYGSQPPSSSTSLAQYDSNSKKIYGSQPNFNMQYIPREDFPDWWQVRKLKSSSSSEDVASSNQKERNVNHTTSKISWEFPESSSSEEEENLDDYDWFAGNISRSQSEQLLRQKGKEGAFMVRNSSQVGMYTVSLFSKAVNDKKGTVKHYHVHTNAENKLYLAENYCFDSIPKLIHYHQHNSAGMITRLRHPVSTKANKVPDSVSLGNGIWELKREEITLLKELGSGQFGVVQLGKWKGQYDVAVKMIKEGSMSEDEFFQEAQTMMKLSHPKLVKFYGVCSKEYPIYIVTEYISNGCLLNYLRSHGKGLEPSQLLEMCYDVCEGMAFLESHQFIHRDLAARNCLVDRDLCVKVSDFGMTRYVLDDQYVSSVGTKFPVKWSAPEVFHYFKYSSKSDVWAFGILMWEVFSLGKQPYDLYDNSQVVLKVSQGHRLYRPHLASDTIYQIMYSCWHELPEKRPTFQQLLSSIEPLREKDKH

[9] = target: panel of 255 wild-type kinases (Homo sapiens, UniProt P54756); conditions: kinase EPHA5, 1 µmol/L single concentration, cited from earlier work
[10] = target: panel of 255 wild-type kinases (Homo sapiens, UniProt P78368); conditions: kinase CK1γ2, 1 µmol/L single concentration, cited from earlier work
[11] = target: panel of 255 wild-type kinases (Homo sapiens, UniProt Q13177); conditions: PAK2, 1 µmol/L single concentration, cited from earlier work
[12] = target: panel of 255 wild-type kinases (Homo sapiens, UniProt Q13627); conditions: kinase DYRK1A, 1 µmol/L single concentration, cited from earlier work
[13] = target: panel of 255 wild-type kinases (Homo sapiens, UniProt Q9UPE1); conditions: MSSK1, 1 µmol/L single concentration, cited from earlier work
[14] = target: panel of 255 wild-type kinases (Homo sapiens, UniProt Q9UQM7); conditions: CaMK2α kinase assay, 1 µmol/L single concentration, cited from earlier work
[15] = target: panel of 255 wild-type kinases (Homo sapiens, UniProt Q9Y463); conditions: kinase DYRK1B, 1 µmol/L single concentration, cited from earlier work
[16] = ref DOI: 10.1158/1535-7163.MCT-18-0877
[17] = ref DOI: 10.1371/journal.pone.0092146

Cc1cc(Nc2ncc(Cl)c(Nc3ccccc3S(=O)(=O)C(C)C)n2)c(OC(C)C)cc1C1CCNCC1 [ceritinib]
%-inhibition at 1 µmol/L, JAK2 [1, 16]: -5.35%
%-inhibition at 1 µmol/L, FES [2, 16]: 99%
%-inhibition at 1 µmol/L, ROS [3, 16]: 101%
%-inhibition at 1 µmol/L, FER [4, 16]: 100%
%-inhibition CDK2/CycA2 [5, 16]: -5.32%
%-inhibition CDK2/CycE1 [5, 16]: -7.57%
%-inhibition at 1 µmol/L, CLK1 [6, 16]: 99%
%-inhibition at 1 µmol/L, CLK3 [7, 16]: 36%
%-inhibition BMX [8, 16]: -0.557%
%-inhibition at 1 µmol/L, EPHA5 [9, 16]: 5%
%-inhibition at 1 µmol/L, CK1γ2 [10, 16]: 0.506%
%-inhibition, PAK2 [11, 16]: -4.22%
%-inhibition at 1 µmol/L, DYRK1A [12, 16]: 1.13%
%-inhibition, MSSK1 [13, 16]: 36%
%-inhibition CaMK2α [14, 16]: 15%
%-inhibition at 1 µmol/L, DYRK1B [15, 16]: 11%

C=CC(=O)Nc1cc(Nc2nccc(-c3cn(C)c4ccccc34)n2)c(OC)cc1N(C)CCN(C)C [osimertinib]
%-inhibition at 1 µmol/L, JAK2 [1, 16]: 4%
%-inhibition at 1 µmol/L, FES [2, 16]: 42%
%-inhibition at 1 µmol/L, ROS [3, 16]: 101%
%-inhibition at 1 µmol/L, FER [4, 16]: 78%
%-inhibition CDK2/CycA2 [5, 16]: -6%
%-inhibition CDK2/CycE1 [5, 16]: 24%
%-inhibition at 1 µmol/L, CLK1 [6, 16]: 47%
%-inhibition at 1 µmol/L, CLK3 [7, 16]: 6%
%-inhibition BMX [8, 16]: 57%
%-inhibition at 1 µmol/L, EPHA5 [9, 16]: -0.189%
%-inhibition at 1 µmol/L, CK1γ2 [10, 16]: 17%
%-inhibition, PAK2 [11, 16]: -14%
%-inhibition at 1 µmol/L, DYRK1A [12, 16]: 0.712%
%-inhibition, MSSK1 [13, 16]: 0.582%
%-inhibition CaMK2α [14, 16]: 2%
%-inhibition at 1 µmol/L, DYRK1B [15, 16]: 5%

CCCS(=O)(=O)Nc1ccc(F)c(C(=O)c2c[nH]c3ncc(-c4ccc(Cl)cc4)cc23)c1F [vemurafenib]
%-inhibition at 1 µmol/L, JAK2 [1, 17]: 18%
%-inhibition at 1 µmol/L, FES [2, 17]: 18%
%-inhibition at 1 µmol/L, ROS [3, 17]: 2%
%-inhibition at 1 µmol/L, FER [4, 17]: 11%
%-inhibition CDK2/CycA2 [5, 17]: -3%
%-inhibition CDK2/CycE1 [5, 17]: -5%
%-inhibition at 1 µmol/L, CLK1 [6, 17]: 5%
%-inhibition at 1 µmol/L, CLK3 [7, 17]: -14%
%-inhibition BMX [8, 17]: 24%
%-inhibition at 1 µmol/L, EPHA5 [9, 17]: 14%
%-inhibition at 1 µmol/L, CK1γ2 [10, 17]: 0.506%
%-inhibition, PAK2 [11, 17]: 13%
%-inhibition at 1 µmol/L, DYRK1A [12, 17]: -18%
%-inhibition, MSSK1 [13, 17]: -6.65%
%-inhibition CaMK2α [14, 17]: -4.25%
%-inhibition at 1 µmol/L, DYRK1B [15, 17]: -1.74%

O=C(c1ccc(F)c(F)c1Nc1ccc(I)cc1F)N1CC(O)([C@@H]2CCCCN2)C1 [cobimetinib]
%-inhibition at 1 µmol/L, JAK2 [1, 16]: 1.2%
%-inhibition at 1 µmol/L, FES [2, 16]: 1.67%
%-inhibition at 1 µmol/L, ROS [3, 16]: 3%
%-inhibition at 1 µmol/L, FER [4, 16]: 4%
%-inhibition CDK2/CycA2 [5, 16]: -8%
%-inhibition CDK2/CycE1 [5, 16]: -8%
%-inhibition at 1 µmol/L, CLK1 [6, 16]: -0.28%
%-inhibition at 1 µmol/L, CLK3 [7, 16]: 4%
%-inhibition BMX [8, 16]: 3.49%
%-inhibition at 1 µmol/L, EPHA5 [9, 16]: 1.26%
%-inhibition at 1 µmol/L, CK1γ2 [10, 16]: 2.37%
%-inhibition, PAK2 [11, 16]: -17%
%-inhibition at 1 µmol/L, DYRK1A [12, 16]: -5%
%-inhibition, MSSK1 [13, 16]: 1.46%
%-inhibition CaMK2α [14, 16]: 7%
%-inhibition at 1 µmol/L, DYRK1B [15, 16]: 2%

CCc1cc2c(cc1N1CCC(N3CCOCC3)CC1)C(C)(C)c1[nH]c3cc(C#N)ccc3c1C2=O [alectinib]
%-inhibition at 1 µmol/L, JAK2 [1, 16]: -3%
%-inhibition at 1 µmol/L, FES [2, 16]: 23%
%-inhibition at 1 µmol/L, ROS [3, 16]: 14%
%-inhibition at 1 µmol/L, FER [4, 16]: 66%
%-inhibition CDK2/CycA2 [5, 16]: 5.68%
%-inhibition CDK2/CycE1 [5, 16]: -2.55%
%-inhibition at 1 µmol/L, CLK1 [6, 16]: 43%
%-inhibition at 1 µmol/L, CLK3 [7, 16]: -2.36%
%-inhibition BMX [8, 16]: 4%
%-inhibition at 1 µmol/L, EPHA5 [9, 16]: 2.67%
%-inhibition at 1 µmol/L, CK1γ2 [10, 16]: -0.041%
%-inhibition, PAK2 [11, 16]: -29%
%-inhibition at 1 µmol/L, DYRK1A [12, 16]: 4%
%-inhibition, MSSK1 [13, 16]: 97%
%-inhibition CaMK2α [14, 16]: 0.405%
%-inhibition at 1 µmol/L, DYRK1B [15, 16]: 2%
